pIC50: −log10 of the molar value. Read-outs that look alike come from different tables or passages of the source.
How the values were obtained:
Type in all cases: cell-based
[1] = biological target: Ba/F3-EGFR-L858R cells (Homo sapiens, UniProt P00533, L858R, cells depend on it); test: BA/F3 EGFR L858R cell survival assay, Cell Titer-Glo; settings: read-out: BA/F3 (EGFR L858R) IC50
Procedure: (§1) Plates were incubated at 37° C. for 48 h. Retrovirus was harvested by filtering the media supernatant through a 0.45 μm filter.
(§2) Ba/F3 cells purchased from DSMZ were grown in RPMI+10% FBS+10 ng/mL IL-3 and infected with filtered retroviral supernatant at a 1:2 dilution. Polybrene was added to a concentration of 8 μg/mL, plates were spun for 90 min, and incubated overnight at 37° C. 2 μg/mL puromycin was added to the infected cells 24 h after infection and cells were continually grown in the presence of puromycin and 10 ng/mL IL-3. Following stably expressing Ba/F3 cell lines were generated: Ba/F3-EGFR-L858R, Ba/F3-EGFR-delLREA, (Ba/F3-vector-control).
(§3) For cell survival assays, Ba/F3 cells were grown to a density of 1-2 million cells per mL, spun down and resuspended in media without IL-3, and replated at a concentration 200,000-500,000 cells per mL. The cells ectopically expressing pBABEpuro empty vector were plated with 10 ng/mL IL-3.
(§4) 2 days later, cells were plated in 50 μL in a 384 well plate at a concentration of 4000 cells per well for cells assayed in the absence of IL-3 and 2000 cells per well for cells (pBABE puro empty vector) assayed in the presence of IL-3. 100 nL of compound was added to each well using a 100 nL pin head, and plates were incubated at 37° C. for 48 h.
(§5) Cell viability was measured by adding 20 μL of Cell Titer-Glo Luminescent Cell Viability Reagent diluted 1:3 in PBS. Plates were sealed with Perkin Elmer Top-Seal, inverted several times to mix, and immediately centrifuged at 1000 rpm for 2 min. Plates were incubated in low light conditions for 8-10 min and luminescence was measured.

[2] = biological target: Ba/F3-EGFR-WT cells (BA/F3 wild type EGFR) (Homo sapiens, UniProt P00533); test: BA/F3 (wild type) proliferation assay, Cell Titer-Glo; settings: Table 7; plated with 10 ng/mL EGF, without IL-3, 48 h; read-out: BA/F3 (wild type) IC50
Procedure: as §1
as §2, with “Ba/F3-EGFR-WT.” for “Ba/F3-EGFR-L858R, Ba/F3-EGFR-delLREA, (Ba/F3-vector-control).”
For cell survival assays, Ba/F3 cells were grown to a density of 1-2 million cells per mL, spun down and resuspended in media without IL-3, and replated at a concentration 200,000-500,000 cells per mL. The cells ectopically expressing WT EGFR were plated with 10 ng/mL Millipore Culture grade EGF.
24 hours later, cells were plated in 30 μL in a 384 well plate at a concentration of 3200 cells per well for cells assayed in the absence of IL-3. 100 nL of compound was added to each well using a 100 nL pin head, and plates were incubated at 37° C. for 48 h.
as §5, with “30” for “20”, “Reagent.” for “Reagent diluted 1:3 in PBS.”

[3] = tested on: Ba/F3-EGFR-delLREA cells (EGFR del19/delLREA (746-750), E746_A750del); test: BA/F3 EGFR del19/delLREA (746-750) (E746_A750del) cell survival assay, Cell Titer-Glo
Procedure: as §1, §2, §3, §4, §5

[4] = tested on: Ba/F3-EGFR L861Q cells; test: BA/F3 (EGFR L861Q) proliferation, uncommon EGFR mutation; settings: Table 10, classical activating and uncommon EGFR mutations
Procedure: as §1
as §2, with “Ba/F3-EGFR-V769_D770 insASV, Ba/F3-EGFR-D770_N771 insNPG, Ba/F3-EGFR-N771_P772 insH, Ba/F3-EGFR-H773_V774 insNPH, Ba/F3-EGFR-D770_N771 insSVD C797S, Ba/F3-EGFR-E746_A750del C797S, Ba/F3-EGFR-L858R C797S, Ba/F3-EGFR L861Q and Ba/F3-ERBB2-A775_G776insYVMA” for “Ba/F3-EGFR-L858R, Ba/F3-EGFR-delLREA,”

[5] = tested on: Ba/F3-EGFR-E746_A750del C797S cells; test: BA/F3 (EGFR E746_A750del C797S) proliferation, acquired resistance; settings: Table 11, acquired resistance space
Procedure: as §1
as §2, with “Ba/F3-EGFR-V769_D770 insASV, Ba/F3-EGFR-D770_N771 insNPG, Ba/F3-EGFR-N771_P772 insH, Ba/F3-EGFR-H773_V774 insNPH, Ba/F3-EGFR-D770_N771 insSVD C797S, Ba/F3-EGFR-E746_A750del C797S, Ba/F3-EGFR-L858R C797S, Ba/F3-EGFR L861Q and Ba/F3-ERBB2-A775_G776insYVMA” for “Ba/F3-EGFR-L858R, Ba/F3-EGFR-delLREA,”

[6] = tested on: Ba/F3-EGFR-L858R C797S cells; test: BA/F3 (EGFR L858R C797S) proliferation, acquired resistance; settings: Table 11, acquired resistance space
Procedure: as §1
as §2, with “Ba/F3-EGFR-V769_D770 insASV, Ba/F3-EGFR-D770_N771 insNPG, Ba/F3-EGFR-N771_P772 insH, Ba/F3-EGFR-H773_V774 insNPH, Ba/F3-EGFR-D770_N771 insSVD C797S, Ba/F3-EGFR-E746_A750del C797S, Ba/F3-EGFR-L858R C797S, Ba/F3-EGFR L861Q and Ba/F3-ERBB2-A775_G776insYVMA” for “Ba/F3-EGFR-L858R, Ba/F3-EGFR-delLREA,”

[7] = biological target: Ba/F3-ERBB2-A775_G776insYVMA cells (Homo sapiens, UniProt P04626, DUP772-775, cells depend on it); test: BA/F3 (ERBB2 A775_G776 insYVMA) proliferation; settings: Table 12; read-out: BA/F3 (ERBB2 A775_G776 insYVMA) IC50
Procedure: as §1
as §2, with “Ba/F3-EGFR-V769_D770 insASV, Ba/F3-EGFR-D770_N771 insNPG, Ba/F3-EGFR-N771_P772 insH, Ba/F3-EGFR-H773_V774 insNPH, Ba/F3-EGFR-D770_N771 insSVD C797S, Ba/F3-EGFR-E746_A750del C797S, Ba/F3-EGFR-L858R C797S, Ba/F3-EGFR L861Q and Ba/F3-ERBB2-A775_G776insYVMA” for “Ba/F3-EGFR-L858R, Ba/F3-EGFR-delLREA,”

[8] = tested on: Ba/F3-EGFR-D770_N771 insSVD C797S cells; test: BA/F3 (EGFR D770_N771 insSVD C797S) proliferation, acquired resistance; settings: Ba/F3 EGFR-D770-N771ins_SVD; Table 11; acquired resistance space
Procedure: as §1
as §2, with “Ba/F3-EGFR-V769_D770 insASV, Ba/F3-EGFR-D770_N771 insNPG, Ba/F3-EGFR-N771_P772 insH, Ba/F3-EGFR-H773_V774 insNPH, Ba/F3-EGFR-D770_N771 insSVD C797S, Ba/F3-EGFR-E746_A750del C797S, Ba/F3-EGFR-L858R C797S, Ba/F3-EGFR L861Q and Ba/F3-ERBB2-A775_G776insYVMA” for “Ba/F3-EGFR-L858R, Ba/F3-EGFR-delLREA,”

[9] = biological target: Ba/F3-EGFR-D770_N771 insNPG cells (Homo sapiens, UniProt P00533, INS772GNP, cells depend on it); test: BA/F3 (insNPG) proliferation, EGFR Exon20 insertion mutation; settings: Table 9; EGFR Exon20 insertion mutations; read-out: BA/F3 (insNPG) IC50
Procedure: as §1
as §2, with “Ba/F3-EGFR-V769_D770 insASV, Ba/F3-EGFR-D770_N771 insNPG, Ba/F3-EGFR-N771_P772 insH, Ba/F3-EGFR-H773_V774 insNPH, Ba/F3-EGFR-D770_N771 insSVD C797S, Ba/F3-EGFR-E746_A750del C797S, Ba/F3-EGFR-L858R C797S, Ba/F3-EGFR L861Q and Ba/F3-ERBB2-A775_G776insYVMA” for “Ba/F3-EGFR-L858R, Ba/F3-EGFR-delLREA,”

[10] = biological target: Ba/F3-EGFR-V769_D770 insASV cells (Homo sapiens, UniProt P00533, DUP767-769, cells depend on it); test: BA/F3 (ASV) proliferation, EGFR Exon20 insertion mutation; settings: Table 9; EGFR Exon20 insertion mutations; read-out: BA/F3 (ASV) IC50
Procedure: as §1
as §2, with “Ba/F3-EGFR-V769_D770 insASV, Ba/F3-EGFR-D770_N771 insNPG, Ba/F3-EGFR-N771_P772 insH, Ba/F3-EGFR-H773_V774 insNPH, Ba/F3-EGFR-D770_N771 insSVD C797S, Ba/F3-EGFR-E746_A750del C797S, Ba/F3-EGFR-L858R C797S, Ba/F3-EGFR L861Q and Ba/F3-ERBB2-A775_G776insYVMA” for “Ba/F3-EGFR-L858R, Ba/F3-EGFR-delLREA,”

[11] = tested on: HCC-827 cells (EGFRex19del); test: HCC-827 cell proliferation, Cell Titer Glo, 72 h; settings: Homo sapiens, HCC827, 72 h, Table 12, several values per example
Procedure: (§6) HCC-827 cells were purchased from ATCC. 400 HCC-829 cells per well were seeded in growth medium (RPMI1640, 10% FCS) in a 384-well plate (CORNING #3571). Seed reference plate for time zero determination on the same day. All plates were incubated overnight at 37° C. After 24 hours, test compound were added in 7-step dilution using HP Compound printer and incubated at 37° C. for 72 h. After 3 days, 30 μL/well CTG solution (Promega Cell Titer Glo solution; catalog #G755B and G756B) were added to each well, incubated for 30 minutes and the plate were read on PheraStar. Proliferation is calculated after subtracting time zero luminescence values from day 4 values and comparing to untreated wells.
The IC50 values were determined using the four parameter fit.

[12] = tested on: PC9 cells (EGFRex19del); test: PC9 cell proliferation, Cell Titer Glo, 72 h; settings: Homo sapiens, PC-9, 72 h, Table 12, several values per example
Procedure: as §6, with “PC9” for “HCC-827”, “PC9” for “HCC-829”, “(DMEM,” for “(RPMI1640,”, “wells. The IC50 values were determined using the four parameter fit.” for “wells.”

[13] = Table 8, without IL-3, 48 h, read-out: BA/F3 (EGFR del19/delREA (746-750) IC50)
[14] = Table 10, classical activating and uncommon EGFR mutations
[15] = Table 10, classical activating and uncommon EGFR mutations, read-out: BA/F3 (EGFR E746_A750del) IC50

Ba/F3-EGFR-L858R cells, sequence (P00533 whole entry L858R): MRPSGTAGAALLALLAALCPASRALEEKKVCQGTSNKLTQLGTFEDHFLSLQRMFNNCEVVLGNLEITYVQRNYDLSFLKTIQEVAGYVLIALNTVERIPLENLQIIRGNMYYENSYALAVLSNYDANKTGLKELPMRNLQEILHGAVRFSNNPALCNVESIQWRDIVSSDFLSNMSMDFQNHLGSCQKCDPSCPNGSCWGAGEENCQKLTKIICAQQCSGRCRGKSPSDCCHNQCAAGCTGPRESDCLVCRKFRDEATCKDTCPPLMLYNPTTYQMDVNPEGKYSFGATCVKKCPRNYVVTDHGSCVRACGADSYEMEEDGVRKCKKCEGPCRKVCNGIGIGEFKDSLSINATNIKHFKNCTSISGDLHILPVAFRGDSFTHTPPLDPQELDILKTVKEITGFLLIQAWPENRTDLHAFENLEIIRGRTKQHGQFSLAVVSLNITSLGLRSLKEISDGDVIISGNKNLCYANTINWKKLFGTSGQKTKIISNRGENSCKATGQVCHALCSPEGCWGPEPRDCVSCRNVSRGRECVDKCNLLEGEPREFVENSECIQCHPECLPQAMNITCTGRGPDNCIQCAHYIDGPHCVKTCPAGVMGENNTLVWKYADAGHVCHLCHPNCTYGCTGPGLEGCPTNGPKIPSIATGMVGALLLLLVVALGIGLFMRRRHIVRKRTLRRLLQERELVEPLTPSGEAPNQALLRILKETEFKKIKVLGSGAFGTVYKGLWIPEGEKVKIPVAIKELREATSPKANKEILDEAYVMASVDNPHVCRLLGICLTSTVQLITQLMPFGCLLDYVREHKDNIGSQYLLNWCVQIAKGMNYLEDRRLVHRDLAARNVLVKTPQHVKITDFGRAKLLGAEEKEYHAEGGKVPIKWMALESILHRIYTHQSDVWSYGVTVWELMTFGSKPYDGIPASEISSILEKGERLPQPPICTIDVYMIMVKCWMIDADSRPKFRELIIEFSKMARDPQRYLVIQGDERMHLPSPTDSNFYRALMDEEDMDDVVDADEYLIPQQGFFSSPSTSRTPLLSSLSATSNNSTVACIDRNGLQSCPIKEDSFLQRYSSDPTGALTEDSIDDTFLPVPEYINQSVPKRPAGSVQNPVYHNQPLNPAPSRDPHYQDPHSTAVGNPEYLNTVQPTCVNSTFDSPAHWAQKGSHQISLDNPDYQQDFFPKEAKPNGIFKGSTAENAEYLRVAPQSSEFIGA
Ba/F3-EGFR-V769_D770 insASV cells, sequence (P00533 with tags, fused parts or gaps DUP767-769): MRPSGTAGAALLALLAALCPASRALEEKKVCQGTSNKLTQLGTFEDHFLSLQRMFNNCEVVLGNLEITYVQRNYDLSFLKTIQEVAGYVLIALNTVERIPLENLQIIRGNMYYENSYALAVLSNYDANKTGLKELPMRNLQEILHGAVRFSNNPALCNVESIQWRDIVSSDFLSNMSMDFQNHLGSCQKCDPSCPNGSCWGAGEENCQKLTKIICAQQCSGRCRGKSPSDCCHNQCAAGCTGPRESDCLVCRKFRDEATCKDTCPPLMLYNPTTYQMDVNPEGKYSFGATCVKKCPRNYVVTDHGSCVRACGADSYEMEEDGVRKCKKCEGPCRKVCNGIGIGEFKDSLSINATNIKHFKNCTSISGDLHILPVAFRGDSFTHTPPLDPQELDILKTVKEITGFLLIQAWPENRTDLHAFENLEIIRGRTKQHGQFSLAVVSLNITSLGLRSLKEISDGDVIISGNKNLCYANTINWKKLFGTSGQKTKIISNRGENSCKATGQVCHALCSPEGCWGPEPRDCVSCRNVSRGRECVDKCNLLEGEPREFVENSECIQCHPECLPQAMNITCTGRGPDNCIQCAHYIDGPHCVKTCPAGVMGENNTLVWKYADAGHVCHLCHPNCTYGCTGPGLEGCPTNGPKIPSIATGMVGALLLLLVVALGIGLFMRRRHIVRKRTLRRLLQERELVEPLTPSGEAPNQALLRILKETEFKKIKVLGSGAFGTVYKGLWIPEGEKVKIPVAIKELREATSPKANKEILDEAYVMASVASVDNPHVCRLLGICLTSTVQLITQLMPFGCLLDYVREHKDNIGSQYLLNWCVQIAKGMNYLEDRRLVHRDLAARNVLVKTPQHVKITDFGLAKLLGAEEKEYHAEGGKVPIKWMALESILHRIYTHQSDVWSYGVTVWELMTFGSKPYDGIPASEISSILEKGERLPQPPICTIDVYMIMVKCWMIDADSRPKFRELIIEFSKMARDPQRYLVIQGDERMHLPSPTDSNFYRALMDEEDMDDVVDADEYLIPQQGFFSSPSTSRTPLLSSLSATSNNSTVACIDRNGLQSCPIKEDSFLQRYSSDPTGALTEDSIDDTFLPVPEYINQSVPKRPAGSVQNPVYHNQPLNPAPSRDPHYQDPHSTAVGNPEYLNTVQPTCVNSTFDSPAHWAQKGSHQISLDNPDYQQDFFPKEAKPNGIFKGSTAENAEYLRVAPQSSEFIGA
Ba/F3-ERBB2-A775_G776insYVMA cells, sequence (P04626 with tags, fused parts or gaps DUP772-775): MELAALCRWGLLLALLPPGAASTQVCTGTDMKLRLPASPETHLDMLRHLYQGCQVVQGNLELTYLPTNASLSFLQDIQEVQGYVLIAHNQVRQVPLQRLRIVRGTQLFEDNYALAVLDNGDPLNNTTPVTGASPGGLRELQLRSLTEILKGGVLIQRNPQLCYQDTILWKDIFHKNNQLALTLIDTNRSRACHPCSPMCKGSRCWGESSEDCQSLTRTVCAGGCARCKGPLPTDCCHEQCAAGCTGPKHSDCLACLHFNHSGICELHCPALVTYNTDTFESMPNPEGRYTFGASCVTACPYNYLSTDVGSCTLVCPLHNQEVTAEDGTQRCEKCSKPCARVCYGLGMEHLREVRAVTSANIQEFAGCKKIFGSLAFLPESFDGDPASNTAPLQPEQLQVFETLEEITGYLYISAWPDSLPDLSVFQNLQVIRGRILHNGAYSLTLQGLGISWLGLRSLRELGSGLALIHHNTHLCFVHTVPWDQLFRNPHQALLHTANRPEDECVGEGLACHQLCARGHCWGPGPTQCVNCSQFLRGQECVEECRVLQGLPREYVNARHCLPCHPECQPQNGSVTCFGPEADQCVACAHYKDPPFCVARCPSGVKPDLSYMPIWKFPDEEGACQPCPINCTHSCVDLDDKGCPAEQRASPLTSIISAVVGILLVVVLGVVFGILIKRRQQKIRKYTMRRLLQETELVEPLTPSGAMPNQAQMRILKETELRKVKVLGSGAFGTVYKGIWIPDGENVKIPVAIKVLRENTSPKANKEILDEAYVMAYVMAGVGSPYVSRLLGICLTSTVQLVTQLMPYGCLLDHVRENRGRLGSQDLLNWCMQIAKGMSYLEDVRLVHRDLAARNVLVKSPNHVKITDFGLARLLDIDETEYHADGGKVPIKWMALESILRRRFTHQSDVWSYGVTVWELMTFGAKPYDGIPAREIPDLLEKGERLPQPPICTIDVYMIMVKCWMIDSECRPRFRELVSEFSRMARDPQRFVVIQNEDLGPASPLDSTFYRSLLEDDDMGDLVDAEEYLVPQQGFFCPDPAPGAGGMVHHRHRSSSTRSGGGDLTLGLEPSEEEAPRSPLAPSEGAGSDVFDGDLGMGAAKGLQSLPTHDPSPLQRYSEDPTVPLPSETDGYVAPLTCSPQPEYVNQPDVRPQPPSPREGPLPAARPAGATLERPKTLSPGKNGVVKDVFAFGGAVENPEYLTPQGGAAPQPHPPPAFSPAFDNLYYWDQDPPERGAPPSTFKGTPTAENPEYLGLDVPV
Ba/F3-EGFR-WT cells (BA/F3 wild type EGFR), sequence (P00533 whole entry, change not shown): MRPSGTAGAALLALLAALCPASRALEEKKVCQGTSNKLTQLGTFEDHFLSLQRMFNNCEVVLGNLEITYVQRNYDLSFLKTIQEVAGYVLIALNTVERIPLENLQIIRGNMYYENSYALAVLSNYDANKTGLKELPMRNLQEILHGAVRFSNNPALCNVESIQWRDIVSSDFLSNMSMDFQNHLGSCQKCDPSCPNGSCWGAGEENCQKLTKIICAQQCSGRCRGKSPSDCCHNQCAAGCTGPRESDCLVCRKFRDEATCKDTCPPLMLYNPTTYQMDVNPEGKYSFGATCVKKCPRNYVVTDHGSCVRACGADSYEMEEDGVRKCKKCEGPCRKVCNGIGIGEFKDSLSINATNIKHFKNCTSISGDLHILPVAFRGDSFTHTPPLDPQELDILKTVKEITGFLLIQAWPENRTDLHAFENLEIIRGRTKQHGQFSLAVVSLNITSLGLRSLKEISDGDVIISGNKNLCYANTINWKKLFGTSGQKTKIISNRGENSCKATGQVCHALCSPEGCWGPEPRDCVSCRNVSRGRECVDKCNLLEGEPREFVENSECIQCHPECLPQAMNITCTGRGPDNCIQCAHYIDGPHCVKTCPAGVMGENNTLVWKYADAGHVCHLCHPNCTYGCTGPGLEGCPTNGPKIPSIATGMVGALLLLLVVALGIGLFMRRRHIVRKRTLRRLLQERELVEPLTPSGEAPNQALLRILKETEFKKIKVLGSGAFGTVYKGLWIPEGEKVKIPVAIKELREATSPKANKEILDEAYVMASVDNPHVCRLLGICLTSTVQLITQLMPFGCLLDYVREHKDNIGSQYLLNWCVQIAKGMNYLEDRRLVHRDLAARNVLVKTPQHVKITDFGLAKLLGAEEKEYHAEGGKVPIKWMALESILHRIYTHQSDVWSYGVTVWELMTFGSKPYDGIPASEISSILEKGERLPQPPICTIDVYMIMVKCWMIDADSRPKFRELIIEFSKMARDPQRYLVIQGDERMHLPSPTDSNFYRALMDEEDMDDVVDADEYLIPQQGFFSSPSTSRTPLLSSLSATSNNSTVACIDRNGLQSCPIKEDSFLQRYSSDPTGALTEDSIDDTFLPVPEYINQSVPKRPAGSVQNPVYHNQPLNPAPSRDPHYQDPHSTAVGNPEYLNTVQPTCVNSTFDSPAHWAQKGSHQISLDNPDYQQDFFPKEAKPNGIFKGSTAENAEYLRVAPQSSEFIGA

GI50 [2]	pIC50 [4]	pIC50 [5]	pIC50 [6]	GI50 [7]	pIC50 [8]	GI50 [9]	GI50 [10]	pIC50 [11]	pIC50 [12]	SMILES	GI50 ([1]; Table 8, without IL-3, 48 h)	pIC50 [3, 13]	GI50 [1, 14]	pIC50 [3, 15]
870 nM	–	–	–	–	–	–	–	–	–	COC(C)(C)COc1cnccc1-c1[nH]c2c(c1Nc1cccc(F)c1OC(F)F)C(=O)NCC2 [Example 19, 3-{[2-(difluoromethoxy)-3-fluorophenyl]amino}-2-[3-(2-methoxy-2-methylpropoxy)pyridin-4-yl]-1,5,6,7-tetrahydro-4H-pyrrolo[3,2-c]pyridin-4-one]	4.7 nM	9.49	–	–
388 nM	–	–	–	–	–	–	–	–	–	COC(C)(C)COc1cnccc1-c1[nH]c2c(c1Nc1cccc(F)c1CC(F)F)C(=O)NCC2 [Example 23, 3-{[2-(2,2-difluoroethyl)-3-fluorophenyl]amino}-2-[3-(2-methoxy-2-methylpropoxy)pyridin-4-yl]-1,5,6,7-tetrahydro-4H-pyrrolo[3,2-c]pyridin-4-one]	3.2 nM	9.59	–	–
–	7.24	8.85	8.48	41.1 nM	7.31	26.2 nM	30.4 nM	–	–	COc1c(Cl)cccc1Nc1c(-c2ccncc2OCC(C)(C)OC)[nH]c2c1C(=O)NCC2 [Example 33, 3-(3-chloro-2-methoxyanilino)-2-[3-(2-methoxy-2-methylpropoxy)pyridin-4-yl]-1,5,6,7-tetrahydro-4H-pyrrolo[3,2-c]pyridin-4-one]	–	–	3.16 nM	8.53
–	7.67	9.27	8.97	21.7 nM	7.76	10 nM	15.1 nM	> 8.52	8.00	COc1c(Cl)cccc1Nc1c(-c2ccncc2OC[C@@H]2CCCN2C)[nH]c2c1C(=O)NCC2 [Example 48, 3-(3-chloro-2-methoxyanilino)-2-(3-{[(2S)-1-methylpyrrolidin-2-yl]methoxy}pyridin-4-yl)-1,5,6,7-tetrahydro-4H-pyrrolo[3,2-c]pyridin-4-one]	–	–	1.39 nM	8.95

Reference: US12403135B2, “4H-pyrrolo[3,2-c]pyridin-4-one derivatives” (Bayer Aktiengesellschaft, priority 2019, dated 2025)
